{
  "source": "paper PMC8235661",
  "about": "“Photoelectric Dye, NK-5962, as a Potential Drug for Preventing Retinal Neurons from Apoptosis: Pharmacokinetic Studies Based on Review of the Evidence” (Life, 2021)",
  "key": {"[1]": {"experiment": "Acute systemic toxicity test", "conditions": "in vivo"}, "[2]": {"experiment": "Hepatic microsomal stability assay, rat", "assay_type": "in vitro ADME", "procedure": "The disappearance of the parent compound over time was measured by using the amount of drug at time zero as a reference. After 5 min of preincubation, 1 mM NADPH (final concentration, the same applies to the following) was added to a mixture containing 1 μM of the test compound, 0.2 mg/mL of rat or human liver microsomes (Sekisui XenoTech, LLC, Kansas City, KS), 1 mM EDTA, and 100 mM phosphate buffer (pH 7.4) and then incubated at 37 °C for 30 min by rotation at 60 rpm. An aliquot of 50 μL of the incubation mixture was sampled and added to 250 μL of chilled acetonitrile/internal standard (IS). After the centrifugation for 15 min at 3150× g at 4 °C, the supernatants were analyzed by LC-MS/MS. Hepatic microsomal stability (mL/min/kg, CLint) was calculated according to the previous report and 44.8 or 48.8 mg microsomal protein/g liver and 40.0 or 25.7 g liver/kg body weight were used as scaling factors for the rat or human, respectively."}, "[3]": {"tested_on": "apoptotic cells in the retinal outer nuclear layer of RCS rats", "design": "method as in PMID 28085534", "conditions": "cited from earlier work"}, "[4]": {"experiment": "Unbound fraction by equilibrium dialysis, human plasma", "assay_type": "in vitro ADME", "conditions": "1 μM, equilibrium dialysis 37 °C 4 h", "procedure": "(§1) An equilibrium dialysis apparatus, Rapid Equilibrium Dialysis (RED) Device Single-Use Plate with Inserts, 8K MWCO (ThermoFisher Scientific, Waltham, MA, USA), was used to determine the unbound fraction for each compound in human plasma, rat plasma, and medium containing 10% fetal bovine serum (FBS). Plasma or medium was mixed with the test compound (1 μM) and 200 μL aliquots were loaded into the apparatus and dialyzed versus 350 μL of 100 mM phosphate buffer (pH 7.4) at 37 °C for 4 h by rotation at 1000 rpm. The unbound fraction was calculated as the ratio of receiver side (buffer) to donor side (plasma) concentrations."}, "[5]": {"tested_on": "human chromosomal aberration", "experiment": "Human chromosomal aberration test", "assay_type": "cell-based"}, "[6]": {"experiment": "PAMPA (parallel artificial membrane permeability assay)", "assay_type": "in vitro ADME", "conditions": "PAMPA, pH 6.5; 0.2 μM test compound, 37 °C, 4 h", "procedure": "In order to determine the passive membrane diffusion rates, the Corning Gentest Pre-coated PAMPA Plate System was used in the PAMPA test. […] The acceptor plate was then placed on top of the donor plate and incubated at 37 °C without agitation for 4 h. At the end of the incubation, the plates were separated and the solutions from each well of both the acceptor plate and the donor plate were transferred to 96-well plates and mixed with acetonitrile. The final concentrations of compound in both the donor wells and acceptor wells, as well as the concentrations of the initial donor solutions, were analyzed by LC-MS/MS. The permeability of the compound was calculated according to the previous report."}, "[7]": {"experiment": "Unbound fraction by equilibrium dialysis, rat plasma", "assay_type": "in vitro ADME", "conditions": "1 μM, equilibrium dialysis 37 °C 4 h", "procedure": "as §1"}, "[8]": {"tested_on": "chick retinal pigment epithelial cells", "design": "method as in PMID 18414992", "conditions": "6.6 × 10^−5, 6.6 × 10^−6 and 6.6 × 10^−7 M, 4 h, dark or light 320 lux; cited from earlier work"}, "[9]": {"experiment": "Eye ball concentration after topical application as eye drops", "assay_type": "in vivo", "conditions": "Wistar, rat", "procedure": "The NK-5962 solutions at 16 μM concentration in phosphate-buffered saline and at 39.7 μM concentration in 0.5% methyl cellulose 400 solution (FUJIFILM Wako Chemicals, Osaka, Japan) were prepared as eye drops and topically applied to both eyes of two Wistar rats assigned for each concentration. The eyes were enucleated 30 min after topical application, washed twice in saline, weighed, and frozen for NK-5962 measurement. In parallel, 3 μL of the NK-5962 solution at 16 μM concentration in phosphate-buffered saline was injected into the vitreous of both eyes of 2 Wistar rats. The eyes in each rat were enucleated 5 min and 2 h after the intravitreous injection, washed twice in saline, weighed, and then frozen. Both eyes of one rat served as the negative control. This study was approved by the Animal Care and Use Committee at Okayama University (Identifier OKU-2016267, OKU-2019196).\nLiquid chromatography and tandem mass spectrometry instrument (LC-MS8060) equipped with Shimadzu Nexera series LC system (Shimadzu, Kyoto, Japan) were used. All compounds were analyzed in multi-reaction monitoring mode under electron spray ionization conditions. The analytical column used was a […] C18 MGIII (3 μm × 2.0 mmID × 35 mm; OSAKA SODA, Osaka, Japan) at 50 °C. […]"}, "bacterial": {"tested_on": "bacterial", "experiment": "Bacterial reverse mutation test"}},
  "note": "Read-outs that look alike come from different tables or passages of the source.",
  "data": [
    {"smiles": "CCCCN(CCCC)c1ccc(C=Cc2sc3ccccc3[n+]2CC(=O)O)cc1.[Br-]", "note": "[NK-5962, 2-[2-[4-(dibutylamino)phenyl]ethenyl]-3-carboxymethylbenzothiazolium bromide]", "values": [
      {"measurement": "acute systemic toxicity test", "setting": "[1]", "result": "not toxic"},
      {"measurement": "Microsome Metabolic Stability Rat", "setting": "[2]; 1 μM, 0.2 mg/mL microsomes, 1 mM NADPH, 30 min", "result": 151.9, "unit": "µL/min/mg"},
      {"measurement": "metabolic stability (in words)", "setting": "[2]; rat liver microsomes", "result": "moderate metabolic stability"},
      {"measurement": "stability in the absence of the coenzyme NADPH", "setting": "[2]; rat liver microsomes, without NADPH", "result": "stable"},
      {"measurement": "CLint scaled at 1 μM", "setting": "[2]; rat, liver microsomes, pH 7.4, 1 μM, 0.2 mg/mL microsomes, 1 mM NADPH, 30 min, read-out: Microsome Metabolic Stability Rat (CLint)", "result": 272, "unit": "mL/min/kg"},
      {"measurement": "number of TUNEL-positive cells in the outer nuclear layer of the four retinal sites (a + b + c + d)", "setting": "[3]; 1.6 μM NK-5962 intravitreous, saline 139", "result": 85},
      {"measurement": "number of TUNEL-positive cells in the outer nuclear layer of the four retinal sites (a + b + c + d)", "setting": "[3]; 16 μM NK-5962 intravitreous, saline 129", "result": 72},
      {"measurement": "number of TUNEL-positive cells in the outer nuclear layer compared to saline-injected eyes", "setting": "[3]; intravitreous 16 μM, constant dark condition, P = 0.0001", "result": "significantly less"},
      {"measurement": "TUNEL-positive cells in the outer nuclear layer compared to the saline-injected eyes", "setting": "[3]; intravitreous 3 μL twice, 16 to 16 × 10^−2 μM, 12 h light/dark cycle", "result": "significantly less"},
      {"measurement": "Protein-Binding (Non-Binding Ratio) Human Plasma", "setting": "[4]", "result": 0.028},
      {"measurement": "genetic toxicity, human chromosomal aberration test", "setting": "[5]", "result": "not toxic"},
      {"measurement": "Papp at 4 h, 0.2 μM", "setting": "[6]", "result": 0.31, "unit": "×10⁻⁶ cm/s"},
      {"measurement": "Protein-Binding (Non-Binding Ratio) Rat Plasma", "setting": "[7]", "result": 0.022},
      {"measurement": "percent cytotoxicity value", "setting": "[8]", "result": "negative in all groups"},
      {"measurement": "concentration at 0.5 h", "setting": "[9]; topical eye drop 16 µM (10 µL)", "result": 0.14, "unit": "nM"},
      {"measurement": "concentration at 0.5 h", "setting": "[9]; topical eye drop 39.7 µM (10 µL)", "result": 0.96, "unit": "nM"},
      {"measurement": "genetic toxicity, bacterial reverse mutation test", "setting": "bacterial", "result": "not toxic"}
    ]}
  ]
}
